Data reported in ChEMBL document CHEMBL1201862, “PubChem BioAssay data set” (2004).
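Results reflect a 48-hour exposure of cells in 96-well plates to compound at five concentrations. At the GI50, growth is halved.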 Active and inactive are the calls of the source. No stated cut-off is given here; in the data, active = GI50 up to about 1.1 µM and inactive = higher.

Columns and labels:
Experiment in all cases: growth of human tumour cells (NCI), 48 h
DU-145 = tested on: DU-145
TK-10 = tested on: TK-10
UACC-62 = tested on: UACC-62
OVCAR-3 = tested on: OVCAR-3
Malme-3M = tested on: Malme-3M
NCI-H23 = tested on: NCI-H23
OVCAR-4 = tested on: OVCAR-4
SNB-75 = tested on: SNB-75
NCI-H522 = tested on: NCI-H522
HT-29 = tested on: HT-29
786-0 = tested on: 786-0
SF-268 = tested on: SF-268
KM12 = tested on: KM12
MOLT-4 = tested on: MOLT-4
Hs-578T = tested on: Hs-578T
HCC 2998 = tested on: HCC 2998
RXF 393 = tested on: RXF 393
SF-539 = tested on: SF-539
SNB-19 = tested on: SNB-19
MCF7 = tested on: MCF7

Measured: GI50

COC(=O)C(Cc1ccccc1)NC(=O)C(CCC(=O)OCc1ccccc1)NC(=O)OC(C)(C)C (stereo not given)
inactive: DU-145 > 100 µM | TK-10 > 100 µM | UACC-62 > 100 µM | OVCAR-3 50.2 µM | Malme-3M > 100 µM | NCI-H23 > 100 µM | OVCAR-4 64 µM | SNB-75 > 100 µM | NCI-H522 30.4 µM | HT-29 35.6 µM | 786-0 > 100 µM | SF-268 > 100 µM | KM12 83.9 µM | MOLT-4 > 100 µM | Hs-578T > 100 µM | HCC 2998 31 µM | RXF 393 > 100 µM | SF-539 > 100 µM | SNB-19 > 100 µM | MCF7 82.8 µM

CC(OCc1ccccc1)C(NC(=O)C1CSSCC(NC(=O)C(Cc2ccccc2)NC(=O)OCc2ccccc2)C(=O)NC(Cc2ccccc2)C(=O)NC(Cc2cn(C=O)c3ccccc23)C(=O)NC(CCCCNC(=O)OCc2ccccc2)C(=O)NC(C(C)OCc2ccccc2)C(=O)N1)C(N)=O (stereo not given)
inactive: DU-145 30.5 µM | TK-10 33.7 µM | UACC-62 72.6 µM | OVCAR-3 14 µM | Malme-3M 41.1 µM | NCI-H23 33.4 µM | OVCAR-4 > 43.5 µM | SNB-75 22.1 µM | NCI-H522 17.4 µM | HT-29 6.04 µM | 786-0 24.9 µM | SF-268 > 61.8 µM | KM12 3.91 µM | MOLT-4 2.81 µM | Hs-578T > 74.8 µM | HCC 2998 7.43 µM | RXF 393 97.1 µM | SF-539 > 100 µM | SNB-19 36.7 µM | MCF7 8.02 µM
